Here are results for nine molecules from patent publication US12162857B2, “Antiviral compounds” (priority 2022, dated 2024).

Experiment [1] deals with Human RSV-A (“Long” strain). The experiment can be described thus: RSV-A assay: CPE in Hep-2 cells, ATPlite readout. The format is cell-based. To be noted: human respiratory syncytial virus, 120 h, MOI 0.1, 5-day incubation. From the text: Hep-2 cells, (originally derived from tumors grown in irradiated-cortisonised weanling rats that had been injected with epidermoid carcinoma tissue from a person's larynx, but later found to be indistinguishable from HeLa cells by PCR DNA analysis), were used for the culturing of genotype A, “Long” strain RSV. Flasks were inoculated with RSV and viral stocks were collected once cytopathic effect (CPE) was greater than 90%. Viral stocks in 25% sucrose media were snap frozen using liquid nitrogen to increase viral stability. Viral stock titers were quantified by tissue culture infectious dose 50% (TCID50) using 8,000 cells per well and 3-fold viral dilutions across a 96-well plate, cultured for 4 days. Viral stock titers were also quantified by a plaque forming unit assay, as described elsewhere.
Following extensive parameter testing, the final assay is run as follows: Hep-2 cells are seeded into the inner 60 wells of a 96-well plate at 8,000 cells per well in a volume of 50 μL using Growth Media (DMEM without phenol red, 1% L-Glut, 1% Penn/Strep, 1% nonessential amino acids, 10% heat-inactivated FBS). 2-fold serial dilutions of control and test compounds are added to the wells in duplicate in a total volume of 25 μL. Viral stock is then added to the wells at a multiplicity of infection (MOI) of 0.1 in a volume of 25 μL, bringing the total volume of each well to 100 μL. The MOI is calculated using the PFU/mL, or TCID50 if unavailable. Each 96-well plate has a control column of 6 wells with cells and virus but no compound (negative control, max CPE), a column with cells but no compound or virus (positive control, minimum CPE), and a column with no cells or virus or compound (background plate/reagent control). The control wells with cells but no virus are given an additional 25 μL of growth media containing an equal quantity of sucrose as those wells receiving the viral stock in order to keep consistent in media and volume conditions. The outer wells of the plate are filled with 125 μL of moat media (DMEM, 100 Penn/Strep) to act as a thermal and evaporative moat around the test wells. Following a 5-day incubation period, the plates are read using ATPlite (50 uL added per well), which quantifies the amount of ATP (a measure of cell health) present in each well. Assay plates are read using the Envision luminometer. […] EC50 ranges are as follows: A<0.01 μM; B 0.01-0.05 μM; C>0.05 μM.

For experiment [2], the system named is HMPV A2 TN/94-49. Kind of experiment: HMPV antiviral assay: LLC-MK2 cells, ATP-Lite readout. The format is cell-based. Conditions: LLC-MK2, 168 h, MOI 0.005, 7 days incubation. A digest of the protocol: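 LLC-MK2 cells (5,000/well) were infected in suspension with HMPV A2 TN/94-49 at MOI 0.005 in serum-free OptiMEM with 2 μg/mL final TPCK-trypsin, then incubated for 7 days at 37 °C. Compounds were tested in duplicate from 2 μM in 10-point 2.5-fold dilutions. ATP-Lite luminescence, normalised to virus-only and cells-only controls as % cell health, gave EC50 by four-parameter fit.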

Experiment [3] deals with HRSV. To be noted: prophylactic use, high risk infants; cited from earlier work.

Broadly, the EC50 is the concentration needed to bring the measured effect to its halfway point. High values mean weaker potency, low ones greater potency. As to `COc1cc(C(=O)NC[C@](O)(c2cc(C(C)(C)F)c(F)c(-c3cc(Cl)c(F)cc3F)n2)C2CC2)cc2cn(C3CC3)nc12` [Example 177], the half-maximal effective concentration (EC50) is 0.01 to 0.05 µM in experiment [1] and over 1 µM in experiment [2].
For `[2H]C([2H])([2H])C(O)(c1cc([C@@](O)(CNC(=O)c2cc(OC)c3nn(C4CC4)cc3c2)c2ccccc2)nc(-c2cc(Cl)c(F)cc2F)c1F)C([2H])([2H])[2H]` [Example 183], in that order: under 0.01 µM and under 1 µM.
For `[2H]C([2H])([2H])C(O)(c1cc([C@@](O)(CNC(=O)c2cc(OC)n3nc(C4CC4)cc3c2)c2ccccc2)nc(-c2cc(Cl)c(F)cc2F)c1F)C([2H])([2H])[2H]` [Example 184], in that order: under 0.01 µM and under 1 µM.
For `[2H]C([2H])([2H])C(O)(c1cc([C@@](O)(CNC(=O)c2cc(OC)c3nn(C(F)F)cc3c2)c2ccccc2)nc(-c2cc(Cl)c(F)cc2F)c1F)C([2H])([2H])[2H]` [Example 185], in that order: under 0.01 µM and under 1 µM.
On to `COc1cc(C(=O)NC[C@@](O)(c2ccccc2)c2cc(C(N)=O)c(F)c(-c3cc(Cl)c(F)cc3F)n2)cc2cn(C3CC3)nc12` [Example 189], for which the EC50 in experiment [1] is 0.01 to 0.05 µM; in experiment [2], over 1 µM.
For `COc1cc(C(=O)NC[C@@](O)(c2ccccc2)c2cc(C(=O)NC3(C)CC3)c(F)c(-c3cc(Cl)c(F)cc3F)n2)cc2cn(C3CC3)nc12` [Example 195], in that order: over 0.05 µM and over 1 µM.
For `COc1cc(C(=O)NC[C@](O)(c2cc(N3CC[C@H](O)C3)cc(-c3cc(Cl)c(F)cc3F)n2)C2CC2)cc2cn(C3CC3)nc12` [Example 199] the same measures were over 0.05 µM and over 1 µM.
With `COc1cc(C(=O)NC[C@](O)(c2cc(N3CC[C@@H](O)C3)cc(-c3cc(Cl)c(F)cc3F)n2)C2CC2)cc2cn(C3CC3)nc12` [Example 200], the values for the EC50 in experiment [1] and in experiment [2] were over 0.05 µM and over 1 µM, respectively.
As to Palivizumab, the “effective in reducing hospitalizations” value in experiment [3] is reported as 60%.
